Measured values published in US5994320A, “Antisense oligonucleotides and methods for treating central nervous system tumors” (Regents of the University of Minnesota, priority 1997, dated 1999).

Tests used:
[1] = system: human U87 glioblastoma cells; assay: Intracerebral infusion, survival of nude rats with intrastriatal U87 xenografts; format: in vivo; conditions: 0.1 nmole/hour continuous infusion over 14 days; saline animals survived only 13 days
Protocol: The effects of infusing c-myb antisense to codons 2-7 on the survival of nude rats with intrastriatal xenografts of human U87 glioblastoma cells was examined. A dose of 0.1 nmole/hour was infused. This dose is equivalent to the delivery of 100 µM of c-myb antisense injected directly into intraflank U87 tumors in 50 Ul volumes on alternate days. Animals received continuous infusions of either c-myb antisense or saline by Alzet Osmotic Minipump (Alza, Palo Alto, Calif.) over a period of 14 days. The pump was implanted immediately above the site of the tumor.

[2] = system: T98 glioblastoma cell line; assay: 3H-thymidine assay of T98 cell proliferation; format: cell-based, human; conditions: T98 cells, 5 nanomoles/500 microliters; for 3H-thymidine incorporation, mean ± SEM: 2 days; for % Control (proliferation): 2 days (48 hours)
Protocol: (§1) Antisense oligonucleotides were incubated with glioblastoma (T98, U87, U373) and medulloblastoma (DAOY) cell lines when they were approximately 60% confluent. Antisense oligonucleotides were added at 5 nanomoles/500 microliters and incubated for 2 days in phosphate buffered saline. Growth of cells lines was measured at 2 days using a standard ^3 H-thymidine assay. Coligan et al., Current Protocols in Immunology, Vol. 2, pg.

[3] = system: DAOY medulloblastoma cell line; assay: 3H-thymidine assay of DAOY cell proliferation; format: cell-based, human; conditions: DAOY cells, 5 nanomoles/500 microliters; for 3H-thymidine incorporation, mean ± SEM: 2 days; for % Control (proliferation): 2 days (48 hours)
Protocol: as §1

[4] = system: U373 glioblastoma cell line; assay: 3H-thymidine assay of U373 cell proliferation; format: cell-based, human; conditions: U373 cells, 5 nanomoles/500 microliters; for 3H-thymidine incorporation, mean ± SEM: 2 days; for % Control (proliferation): 2 days (48 hours)
Protocol: as §1

[5] = Toxicity of intraventricular antisense administration (Whitesell et al.); format: in vivo, rats; conditions: 0.1 nmole/hr versus toxic 3.0 nmole/hr
Protocol: In a study assessing the toxicity of intraventricular antisense administration (Whitesell et al., Proc. Natl. Acad. Sci., 90:4665-4669, 1993), it was determined that dosages of 1.5 nmoles/hr were well tolerated in rats while a dose of 3.0 nmole/hr was toxic. […] Therefore, it is believed that an increase in dose of the c-myb antisense can be administered that will improve survival without toxic side effects.

[6] = system: U87 glioblastoma cell line; assay: 3H-thymidine assay of U87 cell proliferation; format: cell-based, human; conditions: U87 cells, 5 nanomoles/500 microliters; for 3H-thymidine incorporation, mean ± SEM: 2 days; for % Control (proliferation): 2 days (48 hours)
Protocol: as §1

[7] = system: U87 gliomas; assay: Intraflank U87 tumors in nude mice, intratumoral injection; format: in vivo, athymic nude mice; conditions: for Change in tumor size at day 21: 100 μM, 50 μl (5 nanomoles/injection) intratumorally every two days, days 13 to 21
Protocol: Solid U87 gliomas were established in the flanks of athymic nude mice aged 4-6 weeks. Each animal received 5×10^6 U87 cells in 200 μl of medium. The cells were injected subcutaneously into one flank through a 25-gauge needle attached to a tuberculin syringe.
Cells were initially grown in a monolayer at 37° C. in DMEM medium containing 10% fetal calf serum, 2 mM glutamine, 1000 IU/ml of penicillin, and 100 μg/ml of streptomycin. Cells were harvested from culture flasks using trypsin immediately before injection and were kept on ice until the time of injection. Before injection the number of viable cells were confirmed by trypan blue exclusion. Past experience has shown that approximately 90% of tumors will successfully grow in the flank after U87 cell inoculation.
Tumors were allowed to grow for 14 days. Tumor size was evaluated with Vernier calipers using the formula 1/2 length(width)^2 where the length was the longest dimension and the width was the diameter perpendicular to the length. AONcmyb(2-7) was then injected using a Hamilton syringe directly into the tumor at a concentration of 0, 1, 10, or 100 μM in 50 μl volumes on alternate days for 8 days (FIG. 1).
The effects of administering 100 μM concentrations of AONcmyb(2-7) and AONcmyb(182-188) with their corresponding nonsense oligonucleotides, NONcmyb(2-7) and NONcmyb(182-188) along with Hank's Balanced Salt Solution as controls was compared. From days 13 to 21 animals received 50 μl(5 nanomoles/injection) injections intratumorally of either antisense, nonsense, or HBSS every two days.

[8] = system: EGF receptor; assay: EGF receptor expression by flow cytometry in T98 and U87 cells; format: cell-based, human; conditions: 10 μM, 48 hours
Protocol: The effects of c-myb antisense on the expression of epidermal growth factor (EGF) receptors in T98 and U87 cells in vitro was examined using a flow cytometric approach to quantify fluorescently labeled receptors. T98 and U87 cell lines that were treated with 10 μM antisense oligonucleotides for 48 hours were harvested. About 10^5 10^6 (number of cells) were incubated with fluorescently labeled antibody to EGF receptor (available from Upstate Biotech, Inc.) for 24 hours. The cells were then analyzed using a Beckman FACS cell sorter.
Cells for receptor expression assays were harvested, washed twice in PBS and fixed in 70% ethanol of 2% paraformaldehyde. After washing, cells were incubated with appropriate concentrations of specific receptor antibodies for 2-12 hours. Antibody conjugated FITC was then added to the cell suspensions. Cells were washed well between steps and resuspended in Hanks balanced salt solution, 1% sodium azide, and 1% bovine serum albumin. FITC fluorescence was then assayed by flow cytometry counting 10,000 cells per sample. The amount of fluorescently labeled EGF receptor and PDGF receptor were determined by standard flow cytometry analysis.

| Substance | Animals with increased survival times [1] [%] | 3H-thymidine incorporation, mean ± SEM [2] | % Control (proliferation) [2] [%] | 3H-thymidine incorporation, mean ± SEM [3] | % Control (proliferation) [3] [%] | 3H-thymidine incorporation, mean ± SEM [4] | % Control (proliferation) [4] [%] | Factor by which the dose used is below the toxic level for antisense in the brain [5] [times] | 3H-thymidine incorporation, mean ± SEM [6] | % Control (proliferation) [6] [%] | Suppression of tumor growth, comparison of concentrations ([7]; 100 μM versus 0, 1, 10 μM, 50 μl intratumoral on alternate days for 8 days) | Change in tumor size at day 21 [7] | EGF receptor binding, % of control levels [8] |
| --- | --- | --- | --- | --- | --- | --- | --- | --- | --- | --- | --- | --- | --- |
| 5'-GTG CCG GGG TCT TCG GGC-3' (antisense GTGCCGGGGTCTTCGGGC; chemistry not given here) [AONcmyb(2-7), antisense to the initiator region of c-myb, codons 2-7] | 25 | 67,318 ± 6,183 dpm | 53 | 604,061 ± 59,989 dpm | 53 | 402,504 ± 49,647 dpm | 52 | 30 | 74,688 ± 10,145 dpm | 20 | most effective in suppressing tumor growth | no significant change | 13%-30% |
| 5'-TGTAGAATTCCAGTGGTTCTT-3' (antisense TGTAGAATTCCAGTGGTTCTT; chemistry not given here) [AONcmyb(182-188)] |  | 78,457 ± 3,224 dpm | 61 | 517,725 ± 105,450 dpm | 45 | 588,082 ± 25,836 dpm | 76 |  | 92,968 ± 37,259 dpm | 25 |  | no significant change | 30%-35% |
